Assay results published in ChEMBL document CHEMBL1201862, “PubChem BioAssay data set” (2004).
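1) Cells in 96-well plates. 2) Compound, 48 h, 5 concentrations. 3) Linear interpolation between surrounding doses. 4) Unreached endpoint = highest concentration. GI50 marks 50% less growth.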 The source made the active and inactive calls. Cut-off read from the data, not from the text of the source: active = GI50 up to about 1.1 µM and inactive = higher.

What was measured:
Experiment in all cases: NCI anticancer screen, dose series, 48 h
[1] = system: SN12C
[2] = system: HCC 2998
[3] = system: KM12
[4] = system: PC-3
[5] = system: Malme-3M
[6] = system: UACC-257
[7] = system: UACC-62
[8] = system: UO-31
[9] = system: Hs-578T
[10] = system: SF-268
[11] = system: A549
[12] = system: MDA-MB-231
[13] = system: OVCAR-8
[14] = system: NCI-H460
[15] = system: LOX IMVI
[16] = system: HL-60
[17] = system: RPMI-8226
[18] = system: A498
[19] = system: HCT-116
[20] = system: SW-620

Measured: GI50

NC(=O)NC1NC(=O)NC1=O (configuration not stated) [ALLANTOIN]
inactive: [1] > 100 µM | [2] > 100 µM | [3] > 100 µM | [4] > 100 µM | [5] > 100 µM | [6] > 100 µM | [7] > 100 µM | [8] 6 µM | [9] > 100 µM | [10] > 100 µM | [11] > 100 µM | [12] > 100 µM | [13] > 100 µM | [14] > 100 µM | [15] > 100 µM | [16] > 100 µM | [17] > 100 µM | [18] > 100 µM | [19] > 100 µM | [20] > 100 µM

O=P(O)(CCP(=O)(O)c1ccccc1)c1ccccc1
inactive: [1] > 100 µM | [2] > 100 µM | [3] > 100 µM | [4] > 100 µM | [5] > 100 µM | [6] > 100 µM | [7] > 100 µM | [8] > 100 µM | [9] > 100 µM | [10] > 100 µM | [11] > 100 µM | [12] > 100 µM | [13] > 100 µM | [14] > 100 µM | [15] > 100 µM | [16] > 100 µM | [17] > 100 µM | [18] > 100 µM | [19] > 100 µM | [20] > 100 µM

Cc1ccc2nc(/C=N/c3ccccc3Cl)cc(C)c2c1
inactive: [1] 12.2 µM | [2] 47.3 µM | [3] 17.4 µM | [4] 25.4 µM | [5] 20.8 µM | [6] 15.8 µM | [7] 14.6 µM | [8] 16.5 µM | [9] 25.5 µM | [10] 16 µM | [11] > 100 µM | [12] 13.2 µM | [13] 15.2 µM | [14] 17.2 µM | [15] 8.61 µM | [16] 2.73 µM | [17] 8.75 µM | [18] > 100 µM | [19] 4.21 µM | [20] 13.1 µM

COc1ccc(/C=N/N2C(=O)c3c(N)c(C#N)c(-c4ccccc4)c(-c4ccccc4)c3C2=O)cc1
inactive: [1] > 100 µM | [2] > 100 µM | [3] > 100 µM | [4] > 100 µM | [5] > 100 µM | [6] > 100 µM | [7] > 100 µM | [8] > 100 µM | [9] > 100 µM | [10] > 100 µM | [11] > 100 µM | [12] > 100 µM | [13] 82.4 µM | [14] > 100 µM | [15] > 100 µM | [16] > 100 µM | [17] > 100 µM | [18] > 100 µM | [19] 3.65 µM | [20] > 100 µM

CC(=O)SC(C[N+](=O)[O-])c1ccccc1 (configuration not stated)
inactive: [1] 11.1 µM | [2] 4.75 µM | [3] 4.99 µM | [4] 10.7 µM | [5] 16.6 µM | [6] 11.3 µM | [7] 13.9 µM | [8] 2.3 µM | [9] 4.65 µM | [10] 7.98 µM | [11] 3.82 µM | [12] 10.8 µM | [13] 11.8 µM | [14] 8.67 µM | [15] 1.65 µM | [16] 3.87 µM | [17] 2.05 µM | [18] 5.43 µM | [19] 1.6 µM | [20] 2.18 µM

CC1(C)CCC[C@]2(C)[C@H]3[C@H](C#N)c4cc(O)c(O)cc4O[C@@]3(C)CC[C@@H]12
inactive: [1] > 10 µM | [2] > 10 µM | [3] > 10 µM | [4] > 10 µM | [6] > 10 µM | [8] 5.87 µM | [9] > 10 µM | [10] > 10 µM | [12] > 10 µM | [13] > 10 µM | [14] > 10 µM | [15] > 10 µM | [16] > 10 µM | [17] > 10 µM | [18] > 10 µM | [20] > 10 µM

CS(=O)(=O)N1CC(CCl)c2ccc([N+](=O)[O-])cc21 (configuration not stated)
inactive: [1] > 100 µM | [2] > 100 µM | [3] > 100 µM | [4] > 100 µM | [5] > 100 µM | [6] > 100 µM | [7] > 100 µM | [8] > 100 µM | [9] 70.1 µM | [10] > 100 µM | [11] > 100 µM | [12] > 100 µM | [13] > 100 µM | [14] 38.2 µM | [15] > 100 µM | [16] > 100 µM | [17] > 100 µM | [18] > 100 µM | [19] > 100 µM | [20] > 100 µM

C[n+]1c(-c2ccc(/C=N/NC(=O)C(=O)N/N=C/c3ccc(-c4cn5ccccc5[n+]4C)cc3)cc2)cn2ccccc21
inactive: [1] > 100 µM | [2] > 100 µM | [3] > 100 µM | [4] > 100 µM | [5] > 100 µM | [6] > 100 µM | [7] > 100 µM | [8] > 100 µM | [9] > 100 µM | [11] > 100 µM | [12] > 100 µM | [13] > 100 µM | [14] > 100 µM | [16] > 100 µM | [17] > 100 µM | [18] > 100 µM | [20] > 100 µM

COC(=O)C(=O)C(C(=O)C(N)=O)c1nc2ccc(C(=O)c3ccccc3)cc2nc1O (configuration not stated)
inactive: [1] > 100 µM | [2] > 100 µM | [3] 46.9 µM | [4] 75.2 µM | [5] > 100 µM | [6] > 100 µM | [7] > 100 µM | [9] 80.5 µM | [10] > 100 µM | [11] > 100 µM | [12] > 100 µM | [13] 53.8 µM | [14] 74.5 µM | [15] > 100 µM | [16] 84.7 µM | [17] 62.5 µM | [18] > 100 µM | [19] > 100 µM | [20] > 100 µM

Cc1ncc([N+](=O)[O-])n1CCNCCCCn1ccnc1[N+](=O)[O-]
inactive: [1] > 100 µM | [3] > 100 µM | [4] > 100 µM | [5] > 100 µM | [6] > 100 µM | [7] > 100 µM | [8] > 100 µM | [9] > 100 µM | [10] > 100 µM | [11] > 100 µM | [12] > 100 µM | [13] > 100 µM | [14] > 100 µM | [15] > 100 µM | [16] > 100 µM | [17] > 100 µM | [18] > 100 µM | [19] > 100 µM | [20] > 100 µM

COc1ccc(-c2c(C#N)c(-c3ccc(C)cc3)n(NS(=O)(=O)c3ccccc3)c(=O)c2C#N)cc1
inactive: [1] 65.3 µM | [2] 45.8 µM | [3] 46.3 µM | [4] 35 µM | [5] > 100 µM | [6] > 100 µM | [7] 38.5 µM | [9] 33.7 µM | [10] 80.4 µM | [11] 45.9 µM | [12] > 100 µM | [13] 58.1 µM | [14] 45.8 µM | [15] 30.3 µM | [16] 19 µM | [17] 13.3 µM | [18] 59 µM | [19] 42.6 µM | [20] 46.7 µM

O=C1C=C(c2ccccc2)O/C1=C\C(=O)c1ccc(Cl)cc1
inactive: [1] 3.66 µM | [2] 28.3 µM | [3] 34.4 µM | [4] 16.7 µM | [5] 13.6 µM | [6] 18.2 µM | [7] 15.6 µM | [8] 20.7 µM | [9] 21.9 µM | [10] 20 µM | [12] 18.1 µM | [13] 22.6 µM | [14] > 100 µM | [15] 16.3 µM | [16] 2.18 µM | [17] 16.7 µM | [18] 80.2 µM | [19] 16.4 µM | [20] 1.73 µM

O=C1c2cc(Cc3ccccc3)c(=O)c(Cc3ccccc3)cc2C(=O)c2cc(Cc3ccccc3)c(=O)c(Cc3ccccc3)cc21
inactive: [1] > 100 µM | [2] > 100 µM | [3] > 100 µM | [4] > 100 µM | [5] > 100 µM | [6] > 100 µM | [8] > 100 µM | [9] > 100 µM | [10] > 100 µM | [11] > 100 µM | [12] > 100 µM | [13] > 100 µM | [14] > 100 µM | [15] > 100 µM | [16] > 100 µM | [17] > 100 µM | [18] > 100 µM | [19] > 100 µM | [20] > 100 µM

COc1ccc(/C=N/NC(=O)C2=C(N)N(c3ccccc3)C(=C(C#N)C#N)S2)cc1
inactive: [1] > 100 µM | [2] > 100 µM | [3] > 100 µM | [4] > 100 µM | [5] > 100 µM | [6] > 100 µM | [7] > 100 µM | [8] > 100 µM | [9] > 100 µM | [10] > 100 µM | [11] > 100 µM | [12] 79.6 µM | [13] 93.8 µM | [14] > 100 µM | [16] > 100 µM | [17] > 100 µM | [18] 22.6 µM | [19] > 100 µM | [20] > 100 µM
